# The supplement of paper PMC10307832
# Experiments:
# Assay in all cases: relative viability (nuclei count vs DMSO), 5 days (fraction); higher = more cells survive
# Alisertib = compound: COc1cc(Nc2ncc3c(n2)-c2ccc(Cl)cc2C(c2c(F)cccc2OC)=NC3)ccc1C(=O)O [Alisertib]
# How it was run: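 Vehicle-anchored 1536-well plates of lung cancer cell lines, held overnight at 37 °C, were pinned with five library-drug doses (not always all listed) spaced by √10. No medium change followed over the next 5 days, after which the cells were fixed, permeabilised and Hoechst-stained together and imaged at 4×. Nuclei were counted with MetaXpress, and viability is treated-well nuclei over vehicle-well nuclei, taken as a median across plates. Plates passed with control CV below 25% and at least one doubling.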
# Alisertib + Navitoclax = compound: COc1cc(Nc2ncc3c(n2)-c2ccc(Cl)cc2C(c2c(F)cccc2OC)=NC3)ccc1C(=O)O [Alisertib] + CC1(C)CCC(c2ccc(Cl)cc2)=C(CN2CCN(c3ccc(C(=O)NS(=O)(=O)c4ccc(N[C@H](CCN5CCOCC5)CSc5ccccc5)c(S(=O)(=O)C(F)(F)F)c4)cc3)CC2)C1 [Navitoclax] (partner 0.5 µM)
# How it was run: (§1)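 Cells from lung cancer lines were seeded into 1536-well plates and, one day later, dosed by pin tool. Treatments were either a single drug or a fixed dose of an anchor drug with five library-drug doses (not always all listed) in √10 steps. After 5 days, nuclei were stained in a one-step fixation (final 0.05% Triton X-100, 1% formaldehyde, 1 ug/ml Hoechst) and counted on 4× images, and relative viability is the treated-to-vehicle nuclei ratio, as the median of duplicate plates.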
# Alisertib + Tozasertib = compound: COc1cc(Nc2ncc3c(n2)-c2ccc(Cl)cc2C(c2c(F)cccc2OC)=NC3)ccc1C(=O)O [Alisertib] + Cc1cc(Nc2cc(N3CCN(C)CC3)nc(Sc3ccc(NC(=O)C4CC4)cc3)n2)n[nH]1 [Tozasertib] (partner 0.1 µM)
# How it was run: as §1
# Alisertib + Phenformin = compound: COc1cc(Nc2ncc3c(n2)-c2ccc(Cl)cc2C(c2c(F)cccc2OC)=NC3)ccc1C(=O)O [Alisertib] + N=C(N)NC(=N)NCCc1ccccc1 [Phenformin] (partner 250 µM)
# How it was run: as §1
Cell Line,relative viability (Alisertib; 0.005 µM),relative viability (Alisertib; 0.01581 µM),relative viability (Alisertib; 0.05 µM),relative viability (Alisertib; 0.1581 µM),relative viability (Alisertib; 0.5 µM),relative viability (Alisertib + Navitoclax; first compound 0.005 µM),relative viability (Alisertib + Navitoclax; first compound 0.01581 µM),relative viability (Alisertib + Navitoclax; first compound 0.05 µM),relative viability (Alisertib + Navitoclax; first compound 0.1581 µM),relative viability (Alisertib + Navitoclax; first compound 0.5 µM),relative viability (Alisertib + Tozasertib; first compound 0.005 µM),relative viability (Alisertib + Tozasertib; first compound 0.01581 µM),relative viability (Alisertib + Tozasertib; first compound 0.05 µM),relative viability (Alisertib + Tozasertib; first compound 0.1581 µM),relative viability (Alisertib + Tozasertib; first compound 0.5 µM),relative viability (Alisertib + Phenformin; first compound 0.005 µM),relative viability (Alisertib + Phenformin; first compound 0.01581 µM),relative viability (Alisertib + Phenformin; first compound 0.05 µM),relative viability (Alisertib + Phenformin; first compound 0.1581 µM),relative viability (Alisertib + Phenformin; first compound 0.5 µM)
HARA,0.897,0.94,0.656,0.24,0.185,1.15,1.14,0.544,0.281,0.0564,0.103,0.0888,0.0929,0.104,0.0887,0.398,0.469,0.358,0.187,0.133
HCC-15,0.862,0.723,0.513,0.138,0.138,0.657,0.517,0.27,0.12,0.103,0.352,0.154,0.163,0.144,0.0961,0.401,0.313,0.178,0.108,0.1
HCC-44,0.933,0.928,0.816,0.275,0.212,1.04,0.949,0.509,0.412,0.14,0.929,0.59,0.296,0.349,0.196,0.146,0.193,0.134,0.0875,0.0665
HCC-78,0.858,0.642,0.303,0.284,0.328,0.681,0.514,0.176,0.131,0.131,0.446,0.273,0.281,0.245,0.211,0.61,0.541,0.321,0.281,0.26
HCC-366,1,0.813,0.0889,0.0461,0.054,0.976,1.04,0.094,0.0103,0.019,0.125,0.0689,0.0539,0.0439,0.0387,0.552,0.202,0.138,0.0286,0.0335
HCC-827,0.947,1.01,0.812,0.363,0.324,1.01,1,0.545,0.324,0.249,0.378,0.31,0.258,0.273,0.278,0.353,0.431,0.39,0.198,0.178
HOP-62,0.918,0.867,0.505,0.237,0.17,0.966,0.919,0.214,0.139,0.0669,0.339,0.275,0.204,0.24,0.203,0.612,0.553,0.345,0.147,0.143
LC-2-ad,0.736,0.594,0.347,0.245,0.225,0.328,0.159,0.0861,0.114,0.0846,0.441,0.367,0.366,0.338,0.323,0.474,0.426,0.401,0.295,0.304
